Results taken from patent US20130331427A1, “METHODS OF STIMULATING CELLULAR GROWTH, SYNAPTIC, REMODELING AND CONSOLIDATION OF LONG-TERM MEMORY” (Blanchette Rockefeller Neuroscience Institute, priority 2007, published 2013).
Entries after “also recorded” stand apart in the source; their conditions may differ.

Columns and labels:
[1] = test system: CA1 neurons; assay: acute hippocampal slices, number of dendritic spines (spinophilin); format: cell-based; details: 0.1 nM, spine marker spinophilin
[2] = target: T1, PKCα (Rattus norvegicus, UniProt P05696); format: cell-based
T1 construct: from tissue; host or cells: acute hippocampal slices

[3] = test system: calexcitin; assay: calexcitin immunostaining in Hermissenda B-photoreceptors; format: in vivo
Description: Following experimental treatments and testing, animals were rapidly decapitated, the central nervous systems (CNS) removed and then fixed in 4% para-formaldehyde in 20 mM Tris-buffered (pH 8) natural seawater (NSW; 0.2 μm micropore-filtered). The CNSs were then embedded in polyester wax (20), sectioned (6 μm) and immunostained using a biotinylated secondary antibody coupled to avidin-bound microperoxidase (ABC method, Vector), Aminoethylcarbazole (AEC) was used as the chromogen. The primary polyclonal antibody (designated 25U2) was raised in rabbits from the full length calexcitin protein extracted from squid optic lobes. Gray-scale intensity measures were done from digital photomicrographs on circumscribed cytoplasmic areas of the B-photoreceptors minus the same background area (non-staining neuropile).
Micrographs (A, B) depict representative tissue sections from Hermissenda eyes that were immunolabeled with the calexcitin polyclonal antibody, 25U2. […] Differences in staining intensities were measured and recorded as gray-scale intensities (0-256; B-cell cytoplasm minus tissue background).

[4] = test system: sAPP secretion; assay: sAPP secretion with bryostatin-1; format: cell-based; details: 0.1 nM
Excerpt: Of particular interest are macrocyclic lactones (i.e. bryostatin class and neristatin class) that act to stimulate PKC. […] Bryostatin is currently in clinical trials as an anti-cancer agent. The bryostatins are known to bind to the regulatory domain of PKC and to activate the enzyme. […] (See, for example, WO 97/43268; incorporated herein by reference in its entirety).

[5] = target: T2, PKCδ (Rattus norvegicus, UniProt P09215); assay: acute hippocampal slices, PKCδ activation; format: cell-based
T2 construct: from tissue; host or cells: hippocampal slices
T2 sequence (P09215 whole entry): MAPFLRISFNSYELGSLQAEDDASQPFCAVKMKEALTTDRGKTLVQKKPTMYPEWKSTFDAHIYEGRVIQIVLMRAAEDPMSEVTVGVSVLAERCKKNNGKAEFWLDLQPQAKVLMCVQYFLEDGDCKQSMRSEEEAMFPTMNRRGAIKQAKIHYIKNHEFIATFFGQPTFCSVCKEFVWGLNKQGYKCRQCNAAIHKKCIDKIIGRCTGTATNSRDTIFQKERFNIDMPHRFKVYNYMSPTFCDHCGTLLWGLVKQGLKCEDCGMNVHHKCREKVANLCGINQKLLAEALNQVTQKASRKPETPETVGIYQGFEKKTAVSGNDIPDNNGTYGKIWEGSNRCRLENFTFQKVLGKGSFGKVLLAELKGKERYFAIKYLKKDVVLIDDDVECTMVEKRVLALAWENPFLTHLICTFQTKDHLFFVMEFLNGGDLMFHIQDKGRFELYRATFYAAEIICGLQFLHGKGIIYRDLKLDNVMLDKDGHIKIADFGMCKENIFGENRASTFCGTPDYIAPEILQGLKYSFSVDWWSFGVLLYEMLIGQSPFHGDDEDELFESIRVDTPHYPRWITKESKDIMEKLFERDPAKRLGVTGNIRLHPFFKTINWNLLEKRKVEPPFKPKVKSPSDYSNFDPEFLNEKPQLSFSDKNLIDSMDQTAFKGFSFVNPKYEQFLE

[6] = test system: Rat IGF-IR cells; assay: overall protein synthesis, [35S]methionine incorporation; details: single 30-minute exposure to 0.28 nM
Description: [^35S]Methionine (9.1 μCi) was then added to the medium followed by analysis of radiolabel.

[7] = test system: PKC; assay: PKC activity (histone phosphorylation) in Hermissenda nervous systems; format: in vivo
Description: (§1) Cells were homogenized by sonication (5 sec, 25 W) in 100 μl of 100 mM Tris-HCL pH 7.4 buffer containing 1 mM EGTA, 1 mM PMSF, and 50 mM NaF. Homogenate was transferred to a polyallomer centrifuge tube and was centrifuged at 100,000×g for 10 min at 4°. The supernatant was removed and immediately frozen on dry ice. The particulate fraction was resuspended by sonication in 100 μl of the same buffer and stored at −80°. To measure PKC, 10 μl of cytosol or particulate fraction was incubated for 15 min at 37° in the presence of 10 μM histones, 4.89 mM CaCl2, 1.2 μg/μl phosphatidyl-L-serine, 0.18 μg/μl 1.2-dioctanoyl-sn-glycerol, 10 mM MgCl2, 20 mM HEPES (pH 7.4), 0-8 mM EDTA, 4 mM EGTA, 4% glycerol, 8 μg/ml aprotinin, 8 μg/ml leupeptin, and 2 mM benzamidine. 0.5 μCi [γ^32-P]ATP was added and ^32P-phosphoprotein formation was measured by adsorption onto phosphocellulose as described previously (25). This assay was used with slight adjustments for either Hermissenda nervous system homogenates or cultured mammalian neuron homogenates.
Histone phosphorylation (See “Methods”) in isolated circumesophageal nervous systems was then measured in the cytosol fraction. […] (FIG. 12, 13).

[8] = test system: presynaptic markers; assay: pre- and postsynaptic markers, quantitative confocal immunohistochemistry; format: in vivo, rat; details: bryostatin alone
Excerpt: Water maze training increased the numbers of the dendritic spine marker spinophilin (FIG. 29; Panel B), postsynaptic membrane marker neurogranin (FIG. 29; Panels A and D), and presynaptic marker GAP-43 (Panels A and E), but not the axon bouton marker synaptophysin (FIG. 29; Panels A and B), as determined by quantitative confocal immunohistochemistry.

[9] = test system: rats; assay: rat spatial (water) maze learning and memory; format: in vivo
[10] = test system: dendritic spines; assay: dendritic spines of rats trained in a spatial maze task; format: in vivo, rat
Excerpt: On retention day 2, confocal microscopy and […] were used to study filopodia and dendritic spines: mushroom, thin and stubby spines (Panel A).

[11] = test system: PKC; details: cited from earlier work
[12] = test system: PKC; assay: PKC activity in cultured rat hippocampal H19-7/IGF-IR cells; format: cell-based
Description: as §1
Rat hippocampal H19-7/IGF-IR cells (ATCC) were plated onto poly-L-lysine coated plates and grown at 35° in DMEM/10% FCS for several days until approx. 50% coverage was obtained. The cells were then induced to differentiate into a neuronal phenotype by replacing the medium with 5 ml N2 medium containing 10 ng/ml basic fibroblast growth factor and grown in T-25 flasks at 39° C. (26). […] After a specified interval, the medium was removed and the cells were washed with PBS, removed by gentle scraping, and collected by centrifugation at 1000 rpm for 5 min.
These differentiate to have a neuronal phenotype when induced by basic fibroblast growth factor in N2 medium (26) and express a normal complement of neuronal proteins, including PKC.
Both the initial PKC activation and subsequent downregulation have been previously described and were confirmed by measurement of PKC activity in membrane and cytosol.

[13] = test system: ELAV; assay: acute hippocampal slices, nuclear export of ELAV; format: cell-based; details: 120-min incubation
[14] = cited from earlier work
[15] = single dose 0.28 nM for 30 minutes

Compound: CCC/C=C/C=C/C(=O)O[C@H]1/C(=C/C(=O)OC)C[C@H]2C[C@H]([C@@H](C)O)OC(=O)C[C@H](O)C[C@@H]3C[C@H](OC(C)=O)C(C)(C)[C@](O)(C[C@@H]4C/C(=C/C(=O)OC)C[C@H](/C=C/C(C)(C)[C@]1(O)O2)O4)O3 [bryostatin, bryostatin-1]
- number of dendritic spines [1]: augmented
- number of dendritic spines ([1]; listed as Bryostatin): increased
- activation of PKCα [2]: stimulates translocation to the plasma membrane; also recorded: selectively activated
- CE immunostaining ([3]; bryostatin alone, 24 hours after 1 exposure for four hours): not elevated
- CE immunostaining ([3]; bryostatin alone, 24 hours after 2 exposures on two successive days): greater residual CE immunostaining
- CE immunostaining ([3]; bryostatin plus 6 TE): comparable to that observed after 9 TE
- increase of calexcitin levels ([3]; paired training (6PTE), bryostatin 0.25): greater than 4.3 ×
- rise in CE (calexcitin) ([3]; random training (4RTE), bryostatin 0.25): 2.0
- calexcitin level ([3]; two exposures on successive days 0.25 ng/ml, 2-paired TEs, vs 9-random TEs): significantly increased
- sAPP secretion [4]: dramatic increase of sAPP secretion
- activation of PKCδ [5]: but not PKCδ
- increase of overall protein synthesis ([6]; by 79 hours): 60%
- increase of overall protein synthesis ([6]; within 24 h): 20%
- PKC activity, cytosol fraction ([7]; 0.28 nM, 4 hour exposures, 10 minutes and 24 hours after the second of two exposures): significantly increased over baseline levels
- PKC activity, membrane fraction ([7]; 24 hours after the second of two exposures): significantly increased over baseline
- number of presynaptic markers [8]: increased
- latency to reach the platform ([9]; 10 μg/kg i.p. 20 min before training on day 1, 3, 5, vs. controls): greatly reduced
- number of target crossings ([9]; retention Day 1): similarly enhanced
- time to reach the target quadrant ([9]; retention day 1, 24 hours after all training): reduced
- filopodia or thin spines ([10]; all conditions): no changes
- number of stubby spines ([10]; bryostatin alone (without training)): augmented
- total numbers of filopodia and (all shape) spines ([10]; only bryostatin): similarly increased
- water-maze-induced increase in number of mushroom spines ([10]; retention day 2, training plus bryostatin): enhanced
- increase in total numbers of filopodia and spines ([10]; water maze rats also treated with bryostatin): enhanced
- concentrations that activate PKC [11]: sub-nanomolar
- PKC activity, cytoplasmic fraction ([12]; exposed twice within a 2-hour period): significant reduction
- membrane-bound PKC downregulation ([12]; second 30-minute exposure after a 2- to 4-hour delay): eliminated the significant downregulation
- PKC activity, cytoplasmic fraction ([12]; second exposure 4 hours after the first): increased above baseline
- membrane-bound PKC after the brief translocation [12, 15]: prolonged downregulation
- translocation of PKC from the cytosol to the particulate fraction [12, 15]: approx 60%
- PKC activity, cytoplasmic fraction ([12]; within the first 4 hours after exposure): no significant alteration
- ELAV transport [13]: significantly transported to dendrites
- tolerability ([14]; 20 μg/m^2 once per week for 3 weeks): well tolerated
- maximum-tolerated dose ([14]; 1 hour i.v. infusion once every 2 weeks for 6 weeks): 50 μg/m^2
- maximum tolerated dose ([14]; once per week for 8 weeks): 25 μg/m^2
- myalgia reported, share of all treated patients ([14]; phase II clinical trials): 10 to 87%
